# Test results: patent US10385057B2, “Pyrazole compounds and methods of making and using same” (Lundbeck La Jolla Research Center, Inc., priority 2015, dated 2019)
# Tests used:
# FAAH = target: T1, FAAH (Mus musculus, UniProt O08914); assay: In vitro competitive activity-based protein profiling, mouse FAAH; format: biochemical; settings: for inhibition at 1 µM: read-out: FAAH % inh. 1 μM (mouse)
# T1 construct: mouse brain membrane fraction or cell lysates for mouse assays; from tissue
# T1 sequence (O08914 1-579): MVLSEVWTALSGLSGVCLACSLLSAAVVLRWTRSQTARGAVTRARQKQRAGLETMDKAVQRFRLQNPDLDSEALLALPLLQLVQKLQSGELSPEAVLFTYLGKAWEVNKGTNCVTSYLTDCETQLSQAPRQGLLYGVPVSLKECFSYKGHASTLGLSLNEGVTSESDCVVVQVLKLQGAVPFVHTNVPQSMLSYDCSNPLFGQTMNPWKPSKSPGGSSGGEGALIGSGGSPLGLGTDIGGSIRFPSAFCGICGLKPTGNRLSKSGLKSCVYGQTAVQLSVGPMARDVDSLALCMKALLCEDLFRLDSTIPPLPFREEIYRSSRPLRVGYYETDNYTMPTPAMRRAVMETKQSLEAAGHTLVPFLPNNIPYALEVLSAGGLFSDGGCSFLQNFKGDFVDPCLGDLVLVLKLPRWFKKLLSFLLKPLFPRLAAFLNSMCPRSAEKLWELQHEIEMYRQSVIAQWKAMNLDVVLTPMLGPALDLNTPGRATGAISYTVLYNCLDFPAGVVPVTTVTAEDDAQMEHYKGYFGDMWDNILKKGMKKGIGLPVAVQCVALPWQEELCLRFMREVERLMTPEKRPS
# How it was run: (§1)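 Mouse brain membranes or cell lysates (mouse) and human prefrontal cortex or cell membrane fractions (human), 1.0 mg/mL protein, preincubated with inhibitor 30 min at 37 °C, then FP-Rh or HT-01 probe 30 min at 37 °C. SDS-PAGE; MAGL and FAAH activity from in-gel fluorescence band intensity.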
# MAGL = target: T2, MAGL (Mus musculus, UniProt O35678); assay: In vitro competitive activity-based protein profiling, mouse MAGL; format: biochemical; settings: for inhibition at 1 µM: read-out: MAGL % inh. 1 μM (mouse)
# T2 construct: mouse brain membrane fraction or cell lysates for mouse assays; from tissue
# T2 sequence (O35678 1-303): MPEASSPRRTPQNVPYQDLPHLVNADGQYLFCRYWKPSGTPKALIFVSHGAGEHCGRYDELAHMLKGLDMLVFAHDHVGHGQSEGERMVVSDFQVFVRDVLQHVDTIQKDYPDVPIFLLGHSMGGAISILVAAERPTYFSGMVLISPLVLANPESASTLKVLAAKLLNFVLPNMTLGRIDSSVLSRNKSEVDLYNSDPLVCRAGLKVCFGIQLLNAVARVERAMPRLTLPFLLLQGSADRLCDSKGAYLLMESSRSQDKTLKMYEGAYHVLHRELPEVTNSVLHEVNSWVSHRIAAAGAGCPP
# How it was run: as §1
IC50 (FAAH),inhibition at 1 µM (FAAH; 1 μM),IC50 (MAGL),inhibition at 1 µM (MAGL),Compound,FAAH % inh. 1 μM (mouse) (FAAH; 1 μM),MAGL % inh. 1 μM (mouse) (MAGL)
,≥ 75%,,50 to 75%,"CN(Cc1ccccc1Cl)[C@@H]1C[C@@H]2CN(C(=O)n3cc(C(=O)N4CCOCC4)cn3)C[C@@H]2C1 [Example 85, (cis-5-((2-chlorobenzyl)(methyl)amino)hexahydrocyclopenta[c]pyrrol-2(1H)-yl)(4-(morpholine-4-carbonyl)-1H-pyrazol-1-yl)methanone]",,
,≥ 75%,,50 to 75%,"CN(Cc1ccccc1Cl)[C@H]1C[C@@H]2CN(C(=O)n3cc(C(=O)N4CCOCC4)cn3)C[C@@H]2C1 [Example 86, (trans-5-((2-chlorobenzyl)(methyl)amino)hexahydrocyclopenta[c]pyrrol-2(1H)-yl)(4-(morpholine-4-carbonyl)-1H-pyrazol-1-yl)methanone]",,
≤ 100 nM,≥ 75%,≤ 100 nM,≥ 75%,"O=C(N1CC2CN(Cc3ccc(Cl)cc3N3CCOCC3)CC2C1)n1cc(Cl)cn1 (stereo not drawn) [Example 99, (4-chloro-1H-pyrazol-1-yl)(5-(4-chloro-2-morpholinobenzyl)hexahydropyrrolo[3,4-c]pyrrol-2(1H)-yl)methanone]",,
100 to 1000 nM,≥ 75%,≤ 100 nM,≥ 75%,"O=C(N1CC2CN(Cc3ccc(F)cc3N3CCOCC3)CC2C1)n1cc(Cl)cn1 (stereo not drawn) [Example 100, (4-chloro-1H-pyrazol-1-yl)(5-(4-fluoro-2-morpholinobenzyl)hexahydropyrrolo[3,4-c]pyrrol-2(1H)-yl)methanone]",,
100 to 1000 nM,≥ 75%,≤ 100 nM,≥ 75%,"O=C(N1CC2CN(Cc3ccc(Cl)cc3N3CCCC3)CC2C1)n1cc(Cl)cn1 (stereo not drawn) [Example 101, (4-chloro-1H-pyrazol-1-yl)(5-(4-chloro-2-(pyrrolidin-1-yl)benzyl)hexahydropyrrolo[3,4-c]pyrrol-2(1H)-yl)methanone]",,
,≥ 75%,,≥ 75%,"CC(=O)N1CCN(c2cc(Cl)ccc2CN2CC3CN(C(=O)n4cc(Cl)cn4)CC3C2)CC1 (stereo not drawn) [Example 102, 1-(4-(5-chloro-2-((5-(4-chloro-1H-pyrazole-1-carbonyl)hexahydropyrrolo[3,4-c]pyrrol-2(1H)-yl)methyl)phenyl)piperazin-1-yl)ethan-1-one]",,
≤ 100 nM,≥ 75%,≤ 100 nM,≥ 75%,"O=C(N1CC2CN(Cc3ccc(F)cc3N3CCCC3)CC2C1)n1cc(Cl)cn1 (stereo not drawn) [Example 103, (4-chloro-1H-pyrazol-1-yl)(5-(4-fluoro-2-(pyrrolidin-1-yl)benzyl)hexahydropyrrolo[3,4-c]pyrrol-2(1H)-yl)methanone]",,
,≥ 75%,,≥ 75%,"CC1COCCN1c1cc(F)ccc1CN1CC2CN(C(=O)n3cc(Cl)cn3)CC2C1 (stereo not drawn) [Example 104, (4-chloro-1H-pyrazol-1-yl)(5-(4-fluoro-2-(3-methylmorpholino)benzyl)hexahydropyrrolo[3,4-c]pyrrol-2(1H)-yl)methanone]",,
,≥ 75%,,≥ 75%,"CC1COCCN1c1cc(Cl)ccc1CN1CC2CN(C(=O)n3cc(Cl)cn3)CC2C1 (stereo not drawn) [Example 105, (4-chloro-1H-pyrazol-1-yl)(5-(4-chloro-2-(3-methylmorpholino)benzyl)hexahydropyrrolo[3,4-c]pyrrol-2(1H)-yl)methanone]",,
1000 to 10000 nM,50 to 75%,≤ 100 nM,≥ 75%,"CC(C)c1ccc(CN2CC3CN(C(=O)n4cc(Cl)cn4)CC3C2)c(N2CCOCC2)c1 (stereo not drawn) [Example 106, (4-chloro-1H-pyrazol-1-yl)(5-(4-isopropyl-2-morpholinobenzyl)hexahydropyrrolo[3,4-c]pyrrol-2(1H)-yl)methanone]",,

# More lines, now with the values behind:
Compound,IC50 (FAAH),inhibition at 1 µM (FAAH; 1 μM),IC50 (MAGL),inhibition at 1 µM (MAGL),FAAH % inh. 1 μM (mouse) (FAAH; 1 μM),MAGL % inh. 1 μM (mouse) (MAGL)
"CN(Cc1cccc(C(F)(F)F)c1)[C@H]1C[C@@H]2CN(C(=O)n3cc(Cl)cn3)C[C@@H]2C1 [Example 83, (4-chloro-1H-pyrazol-1-yl)(trans-5-(methyl(3-(trifluoromethyl)benzyl)amino)hexahydrocyclopenta[c]pyrrol-2(1H)-yl)methanone]",≤ 100 nM,≥ 75%,≤ 100 nM,≥ 75%,,
"CNC(=O)c1cnn(C(=O)N2C[C@H]3C[C@@H](N(C)Cc4ccccc4Cl)C[C@H]3C2)c1 [Example 84, 1-(cis-5-((2-chlorobenzyl)(methyl)amino)octahydrocyclopenta[c]pyrrole-2-carbonyl)-N-methyl-1H-pyrazole-4-carboxamide]",,,,,A (% inhibition greater than or equal to 75%),A (% inhibition greater than or equal to 75%)
"CN(Cc1ccccc1Cl)[C@@H]1C[C@@H]2CN(C(=O)n3cc(C(=O)N4CCN(C5CC5)CC4)cn3)C[C@@H]2C1 [Example 87, (cis-5-((2-chlorobenzyl)(methyl)amino)hexahydrocyclopenta[c]pyrrol-2(1H)-yl)(4-(4-cyclopropylpiperazine-1-carbonyl)-1H-pyrazol-1-yl)methanone]",,0 to 25%,,25 to 50%,,
"CN(Cc1ccccc1Cl)[C@@H]1C[C@@H]2CN(C(=O)n3cc(C(=O)N4CCCC4)cn3)C[C@@H]2C1 [Example 89, (cis-5-((2-chlorobenzyl)(methyl)amino)hexahydrocyclopenta[c]pyrrol-2(1H)-yl)(4-(pyrrolidine-1-carbonyl)-1H-pyrazol-1-yl)methanone]",,≥ 75%,,,,C (% inhibition greater than or equal to 25% and less than 50%)
"CNC(=O)c1cnn(C(=O)N2C[C@H]3C[C@@H](N(C)Cc4ccccc4C(F)(F)F)C[C@H]3C2)c1 [Example 91, N-methyl-1-(cis-5-(methyl(2-(trifluoromethyl)benzyl)amino)octahydrocyclopenta[c]pyrrole-2-carbonyl)-1H-pyrazole-4-carboxamide]",,≥ 75%,,50 to 75%,,
"CN(Cc1ccccc1C(F)(F)F)[C@@H]1C[C@@H]2CN(C(=O)n3cc(C(=O)N4CCCC4)cn3)C[C@@H]2C1 [Example 92, (cis-5-(methyl(2-(trifluoromethyl)benzyl)amino)hexahydrocyclopenta[c]pyrrol-2(1H)-yl)(4-(pyrrolidine-1-carbonyl)-1H-pyrazol-1-yl)methanone]",,≥ 75%,,≥ 75%,,
"CN(Cc1ccccc1C(F)(F)F)[C@@H]1C[C@@H]2CN(C(=O)n3cc(C(=O)N4CCOCC4)cn3)C[C@@H]2C1 [Example 93, (cis-5-(methyl(2-(trifluoromethyl)benzyl)amino)hexahydrocyclopenta[c]pyrrol-2(1H)-yl)(4-(morpholine-4-carbonyl)-1H-pyrazol-1-yl)methanone]",,≥ 75%,,50 to 75%,,
"CN(Cc1ccccc1C(F)(F)F)[C@@H]1C[C@@H]2CN(C(=O)n3cc(C(=O)N4CCN(C5CC5)CC4)cn3)C[C@@H]2C1 [Example 94, (4-cyclopropylpiperazin-1-yl)(1-(cis-5-(methyl(2-(trifluoromethyl)benzyl)amino)octahydrocyclopenta[c]pyrrole-2-carbonyl)-1H-pyrazol-4-yl)methanone]",,0 to 25%,,≥ 75%,,
"CN(Cc1ccccc1Cl)[C@H]1C[C@@H]2CN(C(=O)n3cc(C(=O)N4CCN(C5CC5)CC4)cn3)C[C@@H]2C1 [Example 95, (trans-5-((2-chlorobenzyl)(methyl)amino)hexahydrocyclopenta[c]pyrrol-2(1H)-yl)(4-(4-cyclopropylpiperazine-1-carbonyl)-1H-pyrazol-1-yl)methanone]",,0 to 25%,,≥ 75%,,
"CN(Cc1ccc(C(F)(F)F)cc1)[C@@H]1C[C@@H]2CN(C(=O)n3cc(C(=O)N4CCCC4)cn3)C[C@@H]2C1 [Example 97, (cis-5-(methyl(4-(trifluoromethyl)benzyl)amino)hexahydrocyclopenta[c]pyrrol-2(1H)-yl)(4-(pyrrolidine-1-carbonyl)-1H-pyrazol-1-yl)methanone]",,≥ 75%,,50 to 75%,,
"CN(Cc1ccc(C(F)(F)F)cc1)[C@@H]1C[C@@H]2CN(C(=O)n3cc(C(=O)N4CCN(C5CC5)CC4)cn3)C[C@@H]2C1 [Example 98, (4-cyclopropylpiperazin-1-yl)(1-(cis-5-(methyl(4-(trifluoromethyl)benzyl)amino)octahydrocyclopenta[c]pyrrole-2-carbonyl)-1H-pyrazol-4-yl)methanone]",,25 to 50%,,≥ 75%,,
